Data as given in patent US20070128217A1 (priority 2003, published 2007).

Key:
[1] = system: antibodies in sera from SARS patients (sera 1a, 1b, 2, 6, 37, 62, London, SARS-yellow, SARS-green); format: binding, human; set-up: Binding of serum 6 to linear peptides of protein X1 of SARS-CoV Urbani / Binding of serum 37 to linear peptides of protein X1 of SARS-CoV Urbani / Binding of serum 6 to looped/cyclic peptide (PEPSCAN-ELISA) / Binding of serum 37 to looped/cyclic peptide (PEPSCAN-ELISA) / Binding of serum 37 to looped/cyclic peptides of protein X1 of SARS-CoV Urbani / Binding of serum 6 to linear peptides of protein X2 / Binding of serum 37 to linear peptides of protein X2 / Binding of serum 37 to looped/cyclic peptides of protein X2 of SARS-CoV Urbani / Binding of serum 6 to linear peptides of protein M of SARS-CoV Urbani / Binding of serum 37 to linear peptides of protein M of SARS-CoV Urbani / Binding of serum 6 to looped/cyclic peptides of protein M of SARS-CoV Urbani / Binding of serum 37 to looped/cyclic peptides of protein M of SARS-CoV Urbani / Binding of serum 6 to linear peptides of protein X3 of SARS-CoV Urbani / Binding of serum 37 to linear peptides of protein X3 of SARS-CoV Urbani / Binding of serum 37 to looped/cyclic peptides of protein X3 of SARS-CoV Urbani / Binding of serum 6 to linear peptides of protein X4 of SARS-CoV Urbani / Binding of serum 37 to linear peptides of protein X4 of SARS-CoV Urbani / Binding of serum 37 to looped/cyclic peptides of protein X4 of SARS-CoV Urbani / Binding of serum 6 to linear peptides of protein X5 of SARS-CoV Urbani / Binding of serum 37 to linear peptides of protein X5 of SARS-CoV Urbani / Binding of serum 37 to looped/cyclic peptides of protein X5 of SARS-CoV Urbani / Binding of serum 6 to linear peptides of protein N of SARS-CoV Urbani / Binding of serum 37 to linear peptides of protein N of SARS-CoV Urbani / Binding of serum 6 to linear peptide (PEPSCAN-ELISA) / Binding of serum 1a to looped/cyclic peptides of protein N of SARS-CoV Urbani / Binding of serum 1b to looped/cyclic peptides of protein N of SARS-CoV Urbani / Binding of serum 2 to looped/cyclic peptides of protein N of SARS-CoV Urbani / Binding of serum 6 to looped/cyclic peptides of protein N of SARS-CoV Urbani / Binding of serum 37 to looped/cyclic peptides of protein N of SARS-CoV Urbani / Binding of serum 62 to looped/cyclic peptides of protein N of SARS-CoV Urbani / Binding of serum London to looped/cyclic peptides of protein N of SARS-CoV Urbani / Binding of serum SARS-green to looped/cyclic peptides of protein N of SARS-CoV Urbani: unit not given here
[2] = system: control sera (pooled serum of ten healthy LUMC hospital workers; commercial negative donor pooled serum from the Dutch bloodbank); format: binding, human; set-up: Binding of Control serum LUMC to linear peptides / Binding of Control serum Blood-bank to linear peptides / Binding of Control serum LUMC to looped peptides / Binding of Control Serum Blood-Bank to Looped peptides / Binding of Control serum LUMC to linear peptides of the protein M of SARS-CoV Urbani / Binding of Control serum Blood-bank to linear peptides of the protein M of SARS-CoV Urbani / Binding of Control serum LUMC to looped peptides of the protein M of SARS-CoV Urbani / Binding of Control Serum Blood-Bank to Looped peptides of the protein M of SARS-CoV Urbani: unit not given here
[3] = system: rabbit serum obtained by immunizing a rabbit with the SARS-CoV strain Frankfurt 1; format: binding; set-up: Binding of a rabbit serum to linear peptides / Binding of a rabbit serum to looped peptides / Rabbit serum linear peptides / Rabbit serum looped peptides / Binding of a rabbit serum to linear peptides of protein N of SARS-CoV Urbani (Rabbit serum linear peptides) / Binding of a rabbit serum to looped/cyclic peptides of protein N of SARS-CoV Urbani (Rabbit serum looped peptides): unit not given here

## PNVQIHTIDGSSGVA
[1]
  Binding of serum 1a to linear peptides of protein X1 of SARS-CoV Urbani: 0.6
  Binding of serum 1a to looped/cyclic peptides of protein X1 of SARS-CoV Urbani: 0.4
  Binding of serum 1b to linear peptides of protein X1 of SARS-CoV Urbani: 0.4
  Binding of serum 1b to looped/cyclic peptides of protein X1 of SARS-CoV Urbani: 0.3
  Binding of serum 2 to linear peptides of protein X1 of SARS-CoV Urbani: 0.5
  Binding of serum 2 to looped/cyclic peptides of protein X1 of SARS-CoV Urbani: 0.2
  Binding of serum 6 to linear peptides of protein X1 of SARS-CoV Urbani: 0.4
  Binding of serum 6 to looped/cyclic peptides of protein X1 of SARS-CoV Urbani: 0.2
  Binding of serum 37 to linear peptides of protein X1 of SARS-CoV Urbani: 0.7
  Binding of serum 37 to looped/cyclic peptides of protein X1 of SARS-CoV Urbani: 0.3
  Binding of serum 62 to linear peptides of protein X1 of SARS-CoV Urbani: 0.6
  Binding of serum 62 to looped/cyclic peptides of protein X1 of SARS-CoV Urbani: 0.3
  Binding of serum London to linear peptides of protein X1 of SARS-CoV Urbani: 0.3
  Binding of serum London to looped/cyclic peptides of protein X1 of SARS-CoV Urbani: 0.2
  Binding of serum SARS-green to linear peptides of protein X1 of SARS-CoV Urbani: 0.2
  Binding of serum SARS-green to looped/cyclic peptides of protein X1 of SARS-CoV Urbani: 0.2
  Binding of serum SARS-yellow to linear peptides of protein X1 of SARS-CoV Urbani: 0.4
  Binding of serum SARS-yellow to looped/cyclic peptides of protein X1 of SARS-CoV Urbani: 0.2
[2]
  Binding of Control Serum Blood-Bank to Looped peptides: 0.5
  Binding of Control serum Blood-bank to linear peptides: 0.5
  Binding of Control serum LUMC to linear peptides: 0.6
  Binding of Control serum LUMC to looped peptides: 0.5
[3]
  Binding of a rabbit serum to linear peptides: 0.1
  Binding of a rabbit serum to looped peptides: 0.4

## FGWLVIGVAFLAVFQ
[1]
  Binding of serum 1a to linear peptides of protein X1 of SARS-CoV Urbani: 0.7
  Binding of serum 1a to looped/cyclic peptide (PEPSCAN-ELISA): 0.7
  Binding of serum 1b to linear peptides of protein X1 of SARS-CoV Urbani: 0.5
  Binding of serum 1b to looped/cyclic peptide (PEPSCAN-ELISA): 0.8
  Binding of serum 2 to linear peptides of protein X1 of SARS-CoV Urbani: 0.5
  Binding of serum 2 to looped/cyclic peptide (PEPSCAN-ELISA): 0.7
  Binding of serum 6 to linear peptides of protein X1 of SARS-CoV Urbani: 0.4
  Binding of serum 6 to looped/cyclic peptide (PEPSCAN-ELISA): 0.5
  Binding of serum 37 to linear peptides of protein X1 of SARS-CoV Urbani: 0.6
  Binding of serum 37 to looped/cyclic peptide (PEPSCAN-ELISA): 0.6
  Binding of serum 62 to linear peptides of protein X1 of SARS-CoV Urbani: 0.6
  Binding of serum 62 to looped/cyclic peptide (PEPSCAN-ELISA): 0.7
  Binding of serum London to linear peptides of protein X1 of SARS-CoV Urbani: 0.3
  Binding of serum London to looped/cyclic peptide (PEPSCAN-ELISA): 0.3
  Binding of serum SARS-green to linear peptides of protein X1 of SARS-CoV Urbani: 0.1
  Binding of serum SARS-green to looped/cyclic peptide (PEPSCAN-ELISA): 0.4
  Binding of serum SARS-yellow to linear peptides of protein X1 of SARS-CoV Urbani: 0.5
  Binding of serum SARS-yellow to looped/cyclic peptide (PEPSCAN-ELISA): 0.6
[2]
  Binding of Control Serum Blood-Bank to Looped peptides: 0.6
  Binding of Control serum Blood-bank to linear peptides: 0.5
  Binding of Control serum LUMC to linear peptides: 0.5
  Binding of Control serum LUMC to looped peptides: 0.7
[3]
  Binding of a rabbit serum to linear peptides: 1.2
  Binding of a rabbit serum to looped peptides: 0.5

## FAYSNRNRFLYIIKL
[1]
  Binding of serum 1a to linear peptides of protein M of SARS-CoV Urbani: 0.6
  Binding of serum 1b to linear peptides of protein M of SARS-CoV Urbani: 0.4
  Binding of serum 2 to linear peptides of protein M of SARS-CoV Urbani: 0.7
  Binding of serum 6 to linear peptides of protein M of SARS-CoV Urbani: 0.3
  Binding of serum 37 to linear peptides of protein M of SARS-CoV Urbani: 0.7
  Binding of serum 62 to linear peptides of protein M of SARS-CoV Urbani: 0.7
  Binding of serum London to linear peptides of protein M of SARS-CoV Urbani: 0.3
  Binding of serum SARS-green to linear peptides of protein M of SARS-CoV Urbani: 0.2
  Binding of serum SARS-yellow to linear peptides of protein M of SARS-CoV Urbani: 0.1
  Recognition of the peptide by sera of SARS-CoV infected individuals, and form (linear, looped/cyclic) in which it is recognized: recognized in looped/cyclic form
[2]
  Binding of Control Serum Blood-Bank to Looped peptides of the protein M of SARS-CoV Urbani: 0.4
  Binding of Control serum Blood-bank to linear peptides of the protein M of SARS-CoV Urbani: 0.6
  Binding of Control serum LUMC to linear peptides of the protein M of SARS-CoV Urbani: 0.4
  Binding of Control serum LUMC to looped peptides of the protein M of SARS-CoV Urbani: 0.6
[3]
  Rabbit serum linear peptides: 0.7
  Rabbit serum looped peptides: 0.6
